Reference: patent US20160002297A1, “THERAPEUTIC AGENTS” (NATIONAL UNIVERSITY OF SINGAPORE, priority 2013, published 2016)
pKd: −log10 of the molar value. Positions of bridges follow the written chain, without caps; N, C: chain ends. Residues, ends and D or L forms follow the SMILES beside them.

Assays:
HUVECs = assay: Tube formation assay on Matrigel; type: cell-based, human
Protocol: HUVECs (1×10^4) were pre-treated with peptides of various concentrations for 30 min before being plated onto the polymerized Matrigel (Millipore, USA) in 15-well μ-slide (Ibidi, Germany). After 4-6 h, capillary network was documented using Zeiss Axiovert200 inverted microscope (Maple Grove, Minn., USA). Tube length was quantified by measuring the length of branches in representative fields using ImageJ software. Plots represented the mean of 3 wells of tubular length in 15-well μ-slide (t SEM).

4T1 breast carcinoma = assay: Subcutaneous 4T1 breast carcinoma growth in mice, intravenous treatment; type: in vivo, mouse
Protocol: FIG. 13 cRKD peptide inhibits subcutaneous 4T1 breast carcinoma growth in mice when delivered intravenously. (a) 4T1 tumor growth curve in mice. X-axis represents the days after inoculation of 1 million tumor cells. Groups consisted of mice receiving 250 μg cRAA peptide or cRKD peptide through tail vein injection every other day from day 0 (date of inoculation) to 22. N=10. (b) Tumor weight at the end of the experiment (day 22). (c) Dissected tumors at the end of experiment. […] Paraffin sections of 4T1 tumors were probed for microvascular density (MVD), tumor cell proliferation and apoptosis through IF using anti-CD31, anti-PCNA and TUNEL staining respectively. (f) Quantification of MVD, cell proliferation and apoptosis. Plots represent the mean of 3 fields per section, 3 sections per tumor and 2 tumors per group. **P<0.01. Error bars denote SEM. […] Double immunofluorescence staining using anti-CD31 (red) and TUNEL (green) is shown. Nuclei were counter stained by DAPI (blue). Representative photos are shown. Apoptotic EC is indicated by white arrow.

endothelial cells (ECs) = assay: Apoptosis assay (Cell Death ELISA) in cultured ECs; type: cell-based; conditions: cultured ECs in the presence of VEGF, 24 h
Protocol: ECs (2×10^4 cells per well) in 96-well plate were starved in 2% FBS basal CSC medium for 3 h. Cells were then incubated with peptides of various concentrations and 15 ng/ml VEGF for 24 h. Apoptosis was detected by measuring cytosolic oligonucleosome-bound DNA using a Cell Death ELISA kit purchased from Roche (USA). Plots represented the mean of 3 wells of apoptotic cells in 96 well plate (±SEM).

GRP78 = GRP78 (Homo sapiens, UniProt P11021); assay: ELISA solid phase-binding assay for binding affinity to GRP78; conditions: purified recombinant GRP78
Protocol: ELISA solid phase-binding assay was used to determine the dissociation constant between ISM or cyclic peptide and GRP78 as previously described with minor modification (Nishiuchi, Takagi et al. 2006). 96-well plates were coated with 50 μl of 10 nM cyclic peptide at 4° C. overnight. Nonspecific binding sites were blocked with 1% BSA for 2 h at room temperature. Increasing concentrations of GRP78 were incubated with immobilized cyclic peptide. After washing, the amount of bound GRP78 was quantified by ELISA. The value for Kd was calculated by GraphPad Prism software.

ECs = assay: Cell attachment (EC adhesion) assay; type: cell-based; conditions: peptide coated on plastic surface
Protocol: 96-well plates were coated with 50 μl of 1 μM ISM at 4° C. overnight. Nonspecific binding sites were blocked with 1% BSA for 2 h at 37° C. ECs were harvested and incubated in CSC basal medium containing 4 μg/ml neutralizing antibodies or control IgG for 30 min. 2[…]104 cells were plated to each well and allowed to attach for 60 min at 37° C. Attached cells were fixed by 10% formalin and stained with 0.2% crystal violet. Absorbed crystal violet was extracted by 10% acetic acid and quantified by measuring the absorbance of eluted dye at 595 nm with a microplate reader.

B16 melanoma = assay: Pre-established subcutaneous B16 melanoma growth in mice, intravenous treatment; type: in vivo, mouse
Protocol: X-axis represents the days after inoculation of 5×10^5 tumor cells. Groups consisted of mice receiving cRAA and cRKD given in six doses of 250 μg through tail vein injection on days 8, 9, 10, 11, 12 and 13 (5 mice in each group, each mice with one tumor). (b) Tumor weight at the end of the experiment (day 14). (c) Dissected tumors at the end of experiment. […] Paraffin sections of B16 tumors were probed for microvascular density (MVD), tumor cell proliferation and apoptosis through immunofluoresence staining using anti-CD31, anti-PCNA and TUNEL staining respectively. (f) Quantification of MVD, cell proliferation and apoptosis. Plots represent the mean of 3 fields per section, 3 sections per tumor and 2 tumors per group. **P<0.01. Error bars denote SEM.

[1] = anti-CD31, anti-PCNA and TUNEL staining

N=C(N)NCCC[C@@H]1NC(=O)[C@@H](N)CSSC[C@@H](C(=O)O)NC(=O)[C@H](CC(=O)O)NC(=O)[C@H](CCCCN)NC1=O [cRKD, Cyclic CRKDC peptide] (H-CRKDC-OH; disulfide 1-5; N-terminus and C-terminus assumed)
anti-angiogenic activity at 1 μM (HUVECs; 1 μM peptide): inhibited angiogenesis with similar potency
inhibition of EC tube-like structure formation on Matrigel (HUVECs; dose-dependence): does-dependently inhibited EC tube-like structure formation
4T1 tumor growth (4T1 breast carcinoma; 250 μg tail vein every other day, day 0 to 22, vs cRAA): suppressed subcutaneous 4T1 breast cancer growth
apoptosis of cancer cells and cancer ECs in 4T1 breast carcinoma (4T1 breast carcinoma; CD31/TUNEL double staining): induces apoptosis of both cancer cells and cancer ECs
tumor angiogenesis, proliferation and apoptosis in 4T1 tumor (4T1 breast carcinoma; [1]): suppressed tumor angiogenesis, proliferation and induced apoptosis
vascularization of 4T1 tumors (4T1 breast carcinoma; compared to control): reduced vascularization
suppression of breast cancer growth (4T1 breast carcinoma; intravenous injection): 75%
induction of EC apoptosis (pro-apoptotic activity) (endothelial cells (ECs)): potently induced apoptosis
induction of EC apoptosis (pro-apoptotic activity) (endothelial cells (ECs); listed as RKD): equally potent comparing to “RKLYD”
pKd (GRP78): 8.02
EC attachment and adhesion (ECs): mediated EC attachment and adhesion
tumor angiogenesis, proliferation and apoptosis in pre-established B16 tumor (B16 melanoma; [1]): suppressed tumor angiogenesis, proliferation and induced apoptosis
vascularization of pre-established B16 tumors (B16 melanoma; compared to control): reduced vascularization
pre-established B16 tumor growth (B16 melanoma; six doses of 250 μg tail vein on days 8-13): inhibits pre-established subcutaneous B16 melanoma growth
